One series has as its target T1, Kv1.3 (Mus musculus, UniProt P16390).
T1 construct: pharmacological characterization of currents from cultured microglia stimulated for 48 hours with AbO or LPS; endogenous in cells; host or cells: primary microglia cultured from newborn C57Bl/6 mice, stimulated 48 h with AbO or LPS
Kind of series: Whole-cell voltage-clamp of Kv currents in cultured stimulated microglia. The format is cell-based. The following applies: read-out: IC50 on microglial Kv current. As to the method: In order to determine if Kv1.3 is indeed functionally expressed in mouse microglia Applicants performed electrophysiological experiments on cultured mouse microglia in the whole-cell mode of the patch-clamp technique. Kv currents were elicited with 500 millisecond pulses from a holding-potential of −100 mV to +40 mV applied every 45 sec.
Microglia cultured from newborn C57B1/6 mice were treated with lipopolysaccharides (LPS) or AbO for 24 or 48 hrs. […] Kv currents were elicited by 500 ms voltage steps from −80 to 40 mV (representative traces on right).

In a further series the test system is cultured mouse microglia. The experiment in a line: Abeta-induced activation of cultured mouse microglia (proliferation, morphology, NFkB, NO, TNF-alpha). The format is cell-based. As to the method: FIGS. 1A and 1B show data regarding AβO-induced NFκ-B and NO, respectively.
Two (2) hours after administration of the indicated treatment, the mouse brains were sectioned and immunostained with an antibody for p65 of NFκB to mark cells with NFκB activation. Numbers of p65-positive cells per 200 DAPI-labeled cells were determined.
(§1) Measurements were made in the conditioned medium and normalized to the amount of total cellular protein in each culture. n=4-6, *p<0.001 compared with control, **p<0.001 compared with the “AβO” group. […] NO released by AβO-treated microglia is the major soluble mediator of AβO-induced microglial neurotoxicity.

The conditions of series [1]: rhesus macaques; cited from earlier work.
In series [2] the test system is AβO-stimulated cultured microglia. Kind of series: AbetaO-induced microglial neurotoxicity (cultured microglia). In kind it is cell-based, mouse. Conditions: co-treating AβO-stimulated cultured microglia; AβO 20 nM, PAP-1 1 μM.
Text: as §1

The conditions of series [3]: rats; cited from earlier work.
For a further series, the system named is microglia. Kind of series: Abeta uptake (phagocytosis) assay in microglia by flow cytometry. The format is cell-based. Conditions: 2 hrs pre-treatment. The text has this:
Using an Aβ uptake assay, Applicants pretreated microglia with either control (vehicle only), anti-SRA (scavenger receptor A) antibody, doxycycline or PAP-1. FIG. 2 is a bar graph showing cell-associated fluorescence as measured by flow cytometry after 2 hrs of such pre-treatment. (n=3, *p<0.01 and **p<0.001 compared with control).
(In general: Flow cytometry measures light scatter and fluorescence of single cells or particles in a stream.)

In series [4] the test system is rat hippocampal slices (CA1 LTP). Kind of series: CA1 LTP induction in rat hippocampal slices with AbO. In kind it is cell-based. Conditions: PAP-1 10 μM pretreatment 30 min prior to AbO 50 nM; 45 min after HFS. As to the method: FIG. 7 summarizes an experiment wherein, under control conditions, CA1 LTP was induced by high frequency stimulation (HFS), which consists of 4 trans of 100Hz basal intensity stimulation lasting for 1 s per train. In control (vehicle only) group, following the HFS, the amplitude or slope of fEPSP was increased to 209±28% of baseline at 45 min after HFS. The bath application of AbO (50 nM) for 10 min blocked the induction of LTP (126±6.7% of control). […] The mean of five consecutive measurements at the end of LTP induction (45 min) was normalized to the baseline (100%) which was the mean of five consecutive measurements just before the HFS.

For series [5] the following is noted: rodents or primates; cited from earlier work.
The next series concerns hippocampal slices. Kind of series: Hippocampal slices: AbetaO-induced microglia activation and neuronal damage. The format is cell-based, mouse. Conditions: AβO 20 nM, PAP-1 1 μM. An excerpt: Three consecutive hippocampal slices were obtained from mouse brain and from mice received the same indicated treatment. One slice was used for CD11b staining (green) for activated microglia (slices outlined by Hoechst stain), one for propidium iodide (PI) uptake, and one for Fluoro-Jade C stain for neuronal damage. DG: dentate gyrus.

The conditions of series [6]: cited from earlier work.

Like-named read-outs stand apart in the source and are kept apart here. Bridge positions count the residues as written; N and C are the ends. Peptide text beside a SMILES is read from it.

Data on two compounds can be found in patent US20140171455A1, “Reduction of Microglia-Mediated Neurotoxicity by Kv1.3 Inhibition” (The Regents of the University of California, priority 2011, published 2014).

T1 sequence (P16390 whole entry): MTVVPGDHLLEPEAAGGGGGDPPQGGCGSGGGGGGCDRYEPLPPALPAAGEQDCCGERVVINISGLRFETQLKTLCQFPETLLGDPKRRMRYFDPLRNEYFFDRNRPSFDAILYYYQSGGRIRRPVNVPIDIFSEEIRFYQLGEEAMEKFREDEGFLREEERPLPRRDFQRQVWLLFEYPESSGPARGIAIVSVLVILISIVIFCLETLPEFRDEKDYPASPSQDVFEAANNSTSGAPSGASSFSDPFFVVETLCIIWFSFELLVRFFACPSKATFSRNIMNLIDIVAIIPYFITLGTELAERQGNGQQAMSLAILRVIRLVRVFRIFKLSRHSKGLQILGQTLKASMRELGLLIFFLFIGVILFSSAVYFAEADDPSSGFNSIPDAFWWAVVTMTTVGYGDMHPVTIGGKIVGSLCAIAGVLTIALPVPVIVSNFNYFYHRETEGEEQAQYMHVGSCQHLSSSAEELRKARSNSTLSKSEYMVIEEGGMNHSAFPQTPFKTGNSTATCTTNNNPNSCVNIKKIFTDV

What is called IC50 is the concentration at which inhibition is half-maximal. With `CC[C@H](C)[C@H](NC(=O)[C@@H](N)[C@@H](C)O)C(=O)N[C@H](C(=O)N[C@@H](CC(N)=O)C(=O)N[C@H](C(=O)N[C@@H](CCCCN)C(=O)N[C@H]1CSSC[C@@H]2NC(=O)[C@H](CCCCN)NC(=O)[C@H](C)NC(=O)CNC(=O)[C@H](C)NC(=O)[C@H](CO)NC(=O)[C@H](CCC(N)=O)NC(=O)CNC(=O)[C@H](Cc3ccccc3)NC(=O)[C@H](CCC(N)=O)NC(=O)[C@H](C)NC(=O)[C@H](CCCCN)NC(=O)[C@@H]3CSSC[C@@H](C(=O)N[C@@H](Cc4ccc(O)cc4)C(=O)N4CCC[C@H]4C(=O)N[C@@H](Cc4c[nH]cn4)C(=O)O)NC(=O)[C@H](CCCCN)NC(=O)[C@H](CSSC[C@H](NC(=O)[C@H](CCC(N)=O)NC(=O)[C@H](CCCCN)NC(=O)[C@@H]4CCCN4C(=O)[C@H](CO)NC(=O)[C@H]([C@@H](C)O)NC1=O)C(=O)N[C@@H](CC(C)C)C(=O)N1CCC[C@H]1C(=O)N1CCC[C@H]1C(=O)N3)NC(=O)[C@H](CCCCN)NC(=O)CNC(=O)[C@H](CC(N)=O)NC(=O)[C@H](CCSC)NC2=O)C(C)C)[C@@H](C)CC` [MgTX] (H-TIINVKCTSPKQCLPPCKAQFGQSAGAKCMNGKCKCYPH-OH; disulfide 7-29, 13-34, 17-36 (inferred); N-terminus and C-terminus assumed), the IC50 on Kv1.3 (cultured microglia stimulated for 48 hours with AbO) turned out to be 0.0797 nM; at Kv1.3 (cultured microglia stimulated for 48 hours with LPS) it was 0.0789 nM.
As a reminder, the half-life is the time in which the quantity being followed falls by half. On to `O=c1ccc2c(OCCCCOc3ccccc3)c3ccoc3cc2o1` [PAP-1, 5-(4-Phenoxybutoxy)psoralen], for which the “signs of microglia activation induced by AβO (proliferation, morphological transformation, NFκ-B activation, NO production)” value in the series with cultured mouse microglia (cultured mouse microglia, AβO 20 nM, PAP-1 1 μM) is reported as “inhibited”. For the same compound, the “increased microglia release of tumor necrosis factor-α, NFκ-B activation and NO production induced by fAβ stimulation” value in the series on cultured mouse microglia (fAβ stimulation) is recorded as “blocked”. Besides, the half-life in [1] is 6.7 h. Moreover, the AβO-induced microglial neurotoxicity entry in series [2] is recorded as “blocked”. The half-life in series [3] was 3 h. For the same compound, in the series on microglia, the “Aβ cell-associated fluorescence (ability of microglia to phagocytose Aβ)” value is on record as “did not impair”. Moreover, the “inhibition by AbO of the induction of CA1 LTP” value in series [4] is “prevented”. For the same compound, the long-term toxicity result in [5] is listed as “has not exhibited long-term toxicity”. Also, in the series with hippocampal slices, the “AβO-induced microglia activation (CD11b staining)” value is on record as “substantially reduced”; the “AβO-induced neuronal damage (propidium iodide uptake and Fluoro-Jade C staining)” value is recorded as “blocked”. Also, the oral bioavailability result in series [6] (in vivo, po) is “orally bioavailable”. Moreover, in series [6] (pharmacokinetic studies), the “brain concentrations versus plasma concentrations (crosses the blood brain barrier)” value is “equal or slightly exceed plasma-concentrations”.
